System: patients with peripheral artery disease and claudication
Assay: 6-Minute Walk Test, Phase II study
Format: in vivo, human
Conditions: single doses 375, 500, 750 mg; 4 hours after dosing
Source text: This study was a double-blind, randomized, placebo-controlled, three-period cross-over, hypothesis generating Phase II study in patients with peripheral artery disease and claudication. […] Secondary objectives included (a) evaluation and characterization of the relationship, if any, between the doses and plasma concentrations of Compound A and its pharmacodynamic effects, and (b) evaluation of the safety and tolerability of Compound A administered as single doses.
Assessments include 1) Bilateral Heel Raise Test (as described below) using electrogoniometry at 3 and 6 hours after dosing, and 2) 6-Minute Walk Test at 4 hours after dosing. Results were analyzed using a repeated-measures ANCOVA with treatment, sequence, period, baseline, and patient in the model. In the event of model assumption violations, non-parametric methods were utilized

C#Cc1cnc2nc(O)n(C(CC)CC)c2n1 [Compound A, 6-ethynyl-1-(pentan-3-yl)-1H-imidazo[4,5-b]pyrazin-2-ol]
distance traversed during 6-Minute Walk Test: dose and concentration dependent decrease

— patent US20190167676A1, “METHODS FOR IMPROVING RESISTANCE TO SKELETAL MUSCLE FATIGUE” (Cytokinetics, Inc., priority 2012, published 2019)
